Assay results from patent US10519152B2, “Compounds and their use in treating cancer” (AstraZeneca AB, priority 2017, dated 2019).

biological target: T1, recombinant human Estrogen Receptor alpha ligand binding domain, residues 307-554 (ER alpha-LBD (GST)) (Homo sapiens, UniProt P03372); test: ERα binding assay (LanthaScreen TR-FRET competition); conditions: TR-FRET competition with Fluormone ES2 tracer, 4 hours at room temperature; single experiment or average of two or more
T1 construct: made in house
T1 sequence (P03372 307-554): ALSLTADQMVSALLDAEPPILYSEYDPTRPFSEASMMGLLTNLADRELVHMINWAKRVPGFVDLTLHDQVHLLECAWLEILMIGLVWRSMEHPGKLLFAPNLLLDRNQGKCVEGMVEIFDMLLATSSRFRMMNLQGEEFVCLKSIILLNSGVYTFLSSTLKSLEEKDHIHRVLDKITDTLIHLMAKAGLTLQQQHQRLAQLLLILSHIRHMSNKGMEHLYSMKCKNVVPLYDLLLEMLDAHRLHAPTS

Compound	IC50
Cc1ncsc1-c1ccc([C@H](C)NC(=O)[C@@H]2C[C@@H](O)CN2C(=O)[C@@H](NC(=O)C(F)(F)OCCCOCCCOc2cc(F)c([C@@H]3c4[nH]c5ccccc5c4C[C@@H](C)N3CC(C)(C)F)c(F)c2)C(C)(C)C)cc1 [Example 120, (2S,4R)-1-((S)-2-(2-(3-(3-(3,5-Difluoro-4-((1R,3R)-2-(2-fluoro-2-methylpropyl)-3-methyl-2,3,4,9-tetrahydro-1H-pyrido[3,4-b]indol-1-yl)phenoxy)propoxy)propoxy)-2,2-difluoroacetamido)-3,3-dimethylbutanoyl)-4-hydroxy-N—((S)-1-(4-(4-methylthiazol-5-yl)phenyl)ethyl)pyrrolidine-2-carboxamide]	0.9 nM
Cc1ncsc1-c1ccc([C@H](C)NC(=O)[C@@H]2C[C@@H](O)CN2C(=O)[C@@H](NC(=O)COCCCOCCCCCOc2cc(F)c([C@@H]3c4[nH]c5ccccc5c4C[C@@H](C)N3CC(C)(C)F)c(F)c2)C(C)(C)C)cc1 [Example 137, (2S,4R)-1-((S)-2-(2-(3-((5-(3,5-Difluoro-4-((R,3R)-2-(2-fluoro-2-methylpropyl)-3-methyl-2,3,4,9-tetrahydro-1H-pyrido[3,4-b]indol-1-yl)phenoxy)pentyl)oxy)propoxy)acetamido)-3,3-dimethylbutanoyl)-4-hydroxy-N—((S)-1-(4-(4-methylthiazol-5-yl)phenyl)ethyl)pyrrolidine-2-carboxamide]	0.8 nM
Cc1ncsc1-c1ccc(CNC(=O)[C@@H]2C[C@@H](O)CN2C(=O)[C@@H](NC(=O)COCCCCOc2cc(F)c([C@@H]3c4[nH]c5ccccc5c4C[C@@H](C)N3CC(C)(C)F)c(F)c2)C(C)(C)C)cc1 [Example 14, (2S,4R)-1-((S)-2-(2-(4-(3,5-Difluoro-4-((1R,3R)-2-(2-fluoro-2-methylpropyl)-3-methyl-2,3,4,9-tetrahydro-1H-pyrido[3,4-b]indol-1-yl)phenoxy)butoxy)acetamido)-3,3-dimethylbutanoyl)-4-hydroxy-N-(4-(4-methylthiazol-5-yl)benzyl)pyrrolidine-2-carboxamide]	0.9 nM
Cc1ncsc1-c1ccc(CNC(=O)[C@@H]2C[C@@H](O)CN2C(=O)[C@@H](NC(=O)COCCCCCCOc2ccc([C@@H]3c4[nH]c5ccccc5c4C[C@@H](C)N3CC(F)F)nc2)C(C)(C)C)cc1 [Example 8, (2S,4R)-1-((S)-2-(2-((6-((6-((1S,3R)-2-(2,2-Difluoroethyl)-3-methyl-2,3,4,9-tetrahydro-1H-pyrido[3,4-b]indol-1-yl)pyridin-3-yl)oxy)hexyl)oxy)acetamido)-3,3-dimethylbutanoyl)-4-hydroxy-N-(4-(4-methylthiazol-5-yl)benzyl)pyrrolidine-2-carboxamide]	6.8 nM
Cc1ncsc1-c1ccc([C@H](C)NC(=O)[C@@H]2C[C@@H](O)CN2C(=O)[C@@H](NC(=O)CCOCCCCCCCOc2cc(F)c([C@@H]3c4[nH]c5ccccc5c4C[C@@H](C)N3CC(C)(C)F)c(F)c2)C(C)(C)C)cc1 [Example 114, (2S,4R)-1-((S)-2-(3-((7-(3,5-difluoro-4-((1R,3R)-2-(2-fluoro-2-methylpropyl)-3-methyl-2,3,4,9-tetrahydro-1H-pyrido[3,4-b]indol-1-yl)phenoxy)heptyl)oxy)propanamido)-3,3-dimethylbutanoyl)-4-hydroxy-N—((S)-1-(4-(4-methylthiazol-5-yl)phenyl)ethyl)pyrrolidine-2-carboxamide]	0.9 nM
Cc1ncsc1-c1ccc(CNC(=O)[C@@H]2C[C@@H](O)CN2C(=O)[C@@H](NC(=O)CCCCCCCCCCOc2cc(F)c([C@@H]3c4[nH]c5ccccc5c4C[C@@H](C)N3CC(C)(C)F)c(F)c2)C(C)(C)C)cc1 [Example 32, (2S,4R)-1-((S)-2-(11-(3,5-Difluoro-4-((1R,3R)-2-(2-fluoro-2-methylpropyl)-3-methyl-2,3,4,9-tetrahydro-1H-pyrido[3,4-b]indol-1-yl)phenoxy)undecanamido)-3,3-dimethylbutanoyl)-4-hydroxy-N-(4-(4-methylthiazol-5-yl)benzyl)pyrrolidine-2-carboxamide]	2.3 nM
Cc1ncsc1-c1ccc(CNC(=O)[C@@H]2C[C@@H](O)CN2C(=O)[C@@H](NC(=O)COCCOCCCCCOc2cc(F)c([C@@H]3c4[nH]c5ccccc5c4C[C@@H](C)N3CC(C)(F)F)c(F)c2)C(C)(C)C)cc1 [Example 166, (2S,4R)-1-((S)-2-(2-(2-((5-(4-((1R,3R)-2-(2,2-Difluoropropyl)-3-methyl-2,3,4,9-tetrahydro-1H-pyrido[3,4-b]indol-1-yl)-3,5-difluorophenoxy)pentyl)oxy)ethoxy)acetamido)-3,3-dimethylbutanoyl)-4-hydroxy-N-(4-(4-methylthiazol-5-yl)benzyl)pyrrolidine-2-carboxamide]	0.8 nM
Cc1ncsc1-c1ccc(CNC(=O)[C@@H]2C[C@@H](O)CN2C(=O)[C@@H](NC(=O)CCCCCCOCCCOc2cc(F)c([C@@H]3c4[nH]c5ccccc5c4C[C@@H](C)N3CC(C)(C)F)c(F)c2)C(C)(C)C)cc1 [Example 110, (2S,4R)-1-((S)-2-(7-(3-(3,5-difluoro-4-((1R,3R)-2-(2-fluoro-2-methylpropyl)-3-methyl-2,3,4,9-tetrahydro-1H-pyrido[3,4-b]indol-1-yl)phenoxy)propoxy)heptanamido)-3,3-dimethylbutanoyl)-4-hydroxy-N-(4-(4-methylthiazol-5-yl)benzyl)pyrrolidine-2-carboxamide]	0.7 nM
Cc1ncsc1-c1ccc(CNC(=O)[C@@H]2C[C@@H](O)CN2C(=O)[C@@H](NC(=O)CCCc2ccc(COc3cc(F)c([C@@H]4c5[nH]c6ccccc6c5C[C@@H](C)N4CC(C)(C)F)c(F)c3)nc2)C(C)(C)C)cc1 [Example 141, (2S,4R)-1-((S)-2-(4-(6-((3,5-Difluoro-4-((1R,3R)-2-(2-fluoro-2-methylpropyl)-3-methyl-2,3,4,9-tetrahydro-1H-pyrido[3,4-b]indol-1-yl)phenoxy)methyl)pyridin-3-yl)butanamido)-3,3-dimethylbutanoyl)-4-hydroxy-N-(4-(4-methylthiazol-5-yl)benzyl)pyrrolidine-2-carboxamide]	1.2 nM
Cc1ncsc1-c1ccc(CNC(=O)[C@@H]2C[C@@H](O)CN2C(=O)[C@@H](NC(=O)COCCC(C)(C)CCOc2cc(F)c([C@@H]3c4[nH]c5ccccc5c4C[C@@H](C)N3CC(C)(C)F)c(F)c2)C(C)(C)C)cc1 [Example 23, (2S,4R)-1-((S)-2-(2-((5-(3,5-Difluoro-4-((1R,3R)-2-(2-fluoro-2-methylpropyl)-3-methyl-2,3,4,9-tetrahydro-1H-pyrido[3,4-b]indol-1-yl)phenoxy)-3,3-dimethylpentyl)oxy)acetamido)-3,3-dimethylbutanoyl)-4-hydroxy-N-(4-(4-methylthiazol-5-yl)benzyl)pyrrolidine-2-carboxamide]	1.1 nM
Cc1ncsc1-c1ccc(CNC(=O)[C@@H]2C[C@@H](O)CN2C(=O)[C@@H](NC(=O)COCCOCCCCCOc2cc(F)c([C@@H]3c4[nH]c5ccccc5c4C[C@@H](C)N3CC(F)(F)F)c(F)c2)C(C)(C)C)cc1 [Example 139, (2S,4R)-1-((S)-2-(2-(2-((5-(3,5-Difluoro-4-((1R,3R)-3-methyl-2-(2,2,2-trifluoroethyl)-2,3,4,9-tetrahydro-1H-pyrido[3,4-b]indol-1-yl)phenoxy)pentyl)oxy)ethoxy)acetamido)-3,3-dimethylbutanoyl)-4-hydroxy-N-(4-(4-methylthiazol-5-yl)benzyl)pyrrolidine-2-carboxamide]	0.5 nM
Cc1ncsc1-c1ccc(CNC(=O)[C@@H]2C[C@@H](O)CN2C(=O)[C@@H](NC(=O)CNCc2ccc(COc3cc(F)c([C@@H]4c5[nH]c6ccccc6c5C[C@@H](C)N4CC(C)(C)F)c(F)c3)nc2)C(C)(C)C)cc1 [Example 146]	0.8 nM
Cc1ncsc1-c1ccc([C@H](C)NC(=O)[C@@H]2C[C@@H](O)CN2C(=O)[C@@H](NC(=O)COCCCOCCCOc2cc(F)c([C@@H]3c4[nH]c5ccccc5c4C[C@@H](C)N3CC(C)(C)F)c(F)c2)C(C)(C)C)cc1 [Example 152, (2S,4R)-1-((S)-2-(2-(3-(3-(3,5-Difluoro-4-((1R,3R)-2-(2-fluoro-2-methylpropyl)-3-methyl-2,3,4,9-tetrahydro-1H-pyrido[3,4-b]indol-1-yl)phenoxy)propoxy)propoxy)acetamido)-3,3-dimethylbutanoyl)-4-hydroxy-N—((S)-1-(4-(4-methylthiazol-5-yl)phenyl)ethyl)pyrrolidine-2-carboxamide]	0.5 nM
Cc1ncsc1-c1ccc(CNC(=O)[C@@H]2C[C@@H](O)CN2C(=O)[C@@H](NC(=O)C2(OCCCCCCOc3cc(F)c([C@@H]4c5[nH]c6ccccc6c5C[C@@H](C)N4CC(C)(C)F)c(F)c3)CC2)C(C)(C)C)cc1 [Example 118, (2S,4R)-1-((S)-2-(1-((6-(3,5-difluoro-4-((1R,3R)-2-(2-fluoro-2-methylpropyl)-3-methyl-2,3,4,9-tetrahydro-1H-pyrido[3,4-b]indol-1-yl)phenoxy)hexyl)oxy)cyclopropane-1-carboxamido)-3,3-dimethylbutanoyl)-4-hydroxy-N-(4-(4-methylthiazol-5-yl)benzyl)pyrrolidine-2-carboxamide]	0.7 nM
Cc1ncsc1-c1ccc(CNC(=O)[C@@H]2C[C@@H](O)CN2C(=O)[C@@H](NC(=O)COCc2ccc(C(=O)Nc3cc(F)c([C@@H]4c5[nH]c6ccccc6c5C[C@@H](C)N4CC(C)(C)F)c(F)c3)nc2)C(C)(C)C)cc1 [Example 144, N-(3,5-Difluoro-4-((1R,3R)-2-(2-fluoro-2-methylpropyl)-3-methyl-2,3,4,9-tetrahydro-1H-pyrido[3,4-b]indol-1-yl)phenyl)-5-((2-(((S)-1-((2S,4R)-4-hydroxy-2-((4-(4-methylthiazol-5-yl)benzyl)carbamoyl)pyrrolidin-1-yl)-3,3-dimethyl-1-oxobutan-2-yl)amino)-2-oxoethoxy)methyl)picolinamide]	1.3 nM
